Assay results reported in patent publication US11845730B2, “1,3-substituted cyclobutyl derivatives and uses thereof” (Novartis AG, priority 2021, dated 2023).
Structures can show the parent of a compound that is named as a salt.

Target: human TRPV1 (Homo sapiens (Human), UniProt Q8NER1)
Conditions: read-out: IC50 (μM), antagonist effect against human TRPV1; CHO cells expressing human TrpV1; stimulated with 2.5 μM NADA (EC80); mean of at least three independent experiments
Procedure: Chinese Hamster Ovary (CHO) cells transfected to express human TrpV1 receptor (which are herein referred to as CHO-huTrpV1 cells), were grown in F-12 Ham's Nutrient Mixture media (HyClone SH30026.01) supplemented with 10% Fetal Bovine Serum (Invitrogen #26140-079), 1% Antibiotic/antimycotic (Invitrogen #15240-062) and 500 ug/mL geneticin (ThermoFisher scientific #1031035). Cells were grown in T-75 flasks at 37° C. incubator with 5% CO2. The cells were passaged twice a week at a ratio of 1:10 to 1:20 to maintain steady growth. For experimentation, cells were harvested at approximately 80% confluency and plated onto 384 well black cell culture plates (cat #781091, Greinier Bio-One Inc.) at 15,000 cells per well in 20 μl media and grown overnight.
The loading dye was prepared following instruction of Calcium 6 assay kit (Molecular Probes, #R8190): 10 ml buffer from bottle B was added to 1 vial of bottle A (adapted to room temperature from −20° C.) and mixed well, then 2.5 mM of fresh prepared probenecid, was added and mixed well. 20 μl/well of loading dye was added on top of the cells, and incubated at 37° C. for 1 hour 30 min.
Assay buffer preparation: 1×HBSS, 2 mM HEPES, 0.1% BSA plus 2.5 mM freshly prepared probenecid (Invitrogen, #P36400). 25 μl/well assay buffer in 384 well clear plate (cat #782281, Greiner Bio-one) was dispensed with buffer distributor (Multidrop ComB1 from Thermo Scientific). The compounds were in 384 Echo plate (cat #LPL0200, Labcyte) and the starting concentration of compound was 10 mM, then 1 to 3 serial dilution in 100% DMSO, 8 ul/well). 125 nl compounds was transferred to the 384 well plate containing 25 μl/well buffer with Echo® 555 Liquid Handler (Labcyte), such that the compound concentration was 5 fold of final concentration. The plate was shook slowly at 40 rpm/min for 10 min to mix. 10 μl of 5 fold compound in the buffer was transferred to the cell plate (containing 20 μl cells and 20 μl dye) using Vertical Pipetting Station 384ST (Agilent Technologies). Six fold of final concentration of NADA (N-arachidonyl dopamine, cat #A8848, Sigma) in the assay buffer was prepared and 30 μl/well was distributed in 384 well clear plate.
After compounds were added to the cell plate with loading dye, within 10-15 minutes, cell plate and plate containing NADA was placed into the FLIPR (Fluorescent Imaging Plate Reader) instrument (Tetra System, Molecular device). The TRPV1 receptor was stimulated by application of 10 μl per well of NADA. For testing the effect of compounds for possible antagonism, 2.5 μM NADA was used at the EC80 concentration.
For determination of antagonist IC50 values (concentration of antagonist that inhibits response to NADA by 50%), at least 10 antagonist concentration were measured in triplicate. The response in the presence of the antagonist was calculated as a percentage of the control response to NADA and was plotted against the concentration of the antagonist. The IC50 was estimated by non-linear regression analysis to sigmoidal-logistic curves by HELIOS (PROD 2) system. These values were averaged (means and standard error of the mean) for at least three independent experiments.

human TRPV1, sequence (Q8NER1 whole entry): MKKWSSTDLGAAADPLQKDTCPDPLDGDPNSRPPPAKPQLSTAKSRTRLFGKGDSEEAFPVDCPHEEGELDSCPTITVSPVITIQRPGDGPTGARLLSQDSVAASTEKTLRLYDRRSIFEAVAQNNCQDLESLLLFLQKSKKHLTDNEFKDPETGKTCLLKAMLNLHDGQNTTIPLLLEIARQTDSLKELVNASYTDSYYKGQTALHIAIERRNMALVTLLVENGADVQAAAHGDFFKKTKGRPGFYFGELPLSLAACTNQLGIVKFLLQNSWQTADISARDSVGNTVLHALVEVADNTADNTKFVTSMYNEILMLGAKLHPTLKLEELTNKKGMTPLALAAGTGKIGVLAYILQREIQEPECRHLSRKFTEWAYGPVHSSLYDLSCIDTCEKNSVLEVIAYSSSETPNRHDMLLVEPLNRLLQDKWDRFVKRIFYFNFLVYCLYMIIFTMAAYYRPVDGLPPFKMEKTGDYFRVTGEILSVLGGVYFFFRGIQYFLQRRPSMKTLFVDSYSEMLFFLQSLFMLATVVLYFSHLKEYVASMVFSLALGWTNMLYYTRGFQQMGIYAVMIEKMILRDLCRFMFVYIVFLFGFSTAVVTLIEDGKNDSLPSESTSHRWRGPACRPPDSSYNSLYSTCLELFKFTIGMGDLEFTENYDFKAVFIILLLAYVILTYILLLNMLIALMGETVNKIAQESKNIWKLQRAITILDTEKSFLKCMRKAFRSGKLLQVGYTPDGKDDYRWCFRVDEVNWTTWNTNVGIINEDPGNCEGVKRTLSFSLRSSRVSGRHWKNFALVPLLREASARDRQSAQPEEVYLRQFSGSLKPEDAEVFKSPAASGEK

SMILES	IC50 [µM]
CCc1ccc2cnccc2c1CN[C@H]1C[C@H](Oc2ccc(F)c(C(F)(F)F)c2)C1 [Example 97, (1r,3r)-N-((6-ethylisoquinolin-5-yl)methyl)-3-(4-fluoro-3-(trifluoromethyl)phenoxy)cyclobutan-1-amine, HCl]	0.28
Fc1ccc(O[C@H]2C[C@H](NCc3cccc4cnc(Cl)cc34)C2)cc1C(F)(F)F [Example 98, (1r,3r)-N-((3-chloroisoquinolin-5-yl)methyl)-3-(4-fluoro-3-(trifluoromethyl)phenoxy)cyclobutan-1-amine, HCl]	0.418
Fc1ccc(S[C@H]2C[C@H](NCc3cccc4cnccc34)C2)cc1C(F)(F)F [Example 99, (1r,3r)-3-((4-fluoro-3-(trifluoromethyl)phenyl)thio)-N-(isoquinolin-5-ylmethyl)cyclobutan-1-amine, HCl]	0.362
Fc1ccc(S[C@H]2C[C@H](NCc3c(F)ccc4cnccc34)C2)cc1C(F)(F)F [Example 100, (1r,3r)-3-((4-fluoro-3-(trifluoromethyl)phenyl)thio)-N-((6-fluoroisoquinolin-5-yl)methyl)cyclobutan-1-amine, HCl]	0.074
Fc1cc(O[C@H]2C[C@H](NCc3c(F)ccc4cnccc34)C2)ccc1C(F)F [Example 101, (1r,3r)-3-(4-(difluoromethyl)-3-fluorophenoxy)-N-((6-fluoroisoquinolin-5-yl)methyl)cyclobutan-1-amine]	0.0147
Fc1ccc(O[C@H]2C[C@H](NCc3c(F)ccc4cncnc34)C2)cc1C(F)(F)F [Example 102, (1r,3r)-3-(4-fluoro-3-(trifluoromethyl)phenoxy)-N-((7-fluoroquinazolin-8-yl)methyl)cyclobutan-1-amine]	0.0603
O=C(Cc1c(F)cc(CO)c2cnccc12)N[C@H]1C[C@H](Oc2ccc(F)c(C(F)(F)F)c2)C1 [Example 103, N-((1r,3r)-3-(4-fluoro-3-(trifluoromethyl)phenoxy)cyclobutyl)-2-(6-fluoro-8-(hydroxymethyl)isoquinolin-5-yl)acetamide]	0.00044
NCC(O)c1cc(F)c(CN[C@H]2C[C@H](Oc3ccc(F)c(C(F)(F)F)c3)C2)c2ccncc12 (stereo partly shown) [Example 104, 2-amino-1-(6-fluoro-5-((((1r,3r)-3-(4-fluoro-3-(trifluoromethyl)phenoxy)cyclobutyl)amino)methyl)isoquinolin-8-yl)ethan-1-ol]	2.15
Fc1ccc(CO[C@H]2C[C@H](NCc3c(F)ccc4cnccc34)C2)c(F)c1 [Example 105, (1r,3r)-3-((2,4-difluorobenzyl)oxy)-N-((6-fluoroisoquinolin-5-yl)methyl)cyclobutan-1-amine]	1.28
Cc1cc(O[C@H]2C[C@H](NCc3c(F)ccc4cnccc34)C2)cc(C(F)(F)F)n1 [Example 106, (1r,3r)-N-((6-fluoroisoquinolin-5-yl)methyl)-3-((2-methyl-6-(trifluoromethyl)pyridin-4-yl)oxy)cyclobutan-1-amine]	1.65
Fc1ccc2cnccc2c1CN[C@H]1C[C@H](Oc2nc(C(F)(F)F)cs2)C1 [Example 107, (1r,3r)-N-((6-fluoroisoquinolin-5-yl)methyl)-3-((4-(trifluoromethyl)thiazol-2-yl)oxy)cyclobutan-1-amine]	1.91
N#Cc1ncc(O[C@H]2C[C@H](NCc3c(F)ccc4cnccc34)C2)cn1 [Example 108, 5-((1r,3r)-3-(((6-fluoroisoquinolin-5-yl)methyl)amino)cyclobutoxy)pyrimidine-2-carbonitrile]	2.51
Nc1nccc2c(CN[C@H]3C[C@H](Oc4ccc(F)c(C(F)(F)F)c4)C3)cccc12 [Example 109, 5-((((1r,3r)-3-(4-fluoro-3-(trifluoromethyl)phenoxy)cyclobutyl)amino)methyl)isoquinolin-1-amine]	1.46
Fc1ccc2cnccc2c1CN[C@H]1C[C@H](Oc2ccc(C(F)F)nc2)C1 [Example 110, (1r,3r)-3-((6-(difluoromethyl)pyridin-3-yl)oxy)-N-((6-fluoroisoquinolin-5-yl)methyl)cyclobutan-1-amine]	1.38
Fc1ccc2cnccc2c1CN[C@H]1C[C@H](Oc2ccnc(C(F)F)c2)C1 [Example 111, (1r,3r)-3-((2-(difluoromethyl)pyridin-4-yl)oxy)-N-((6-fluoroisoquinolin-5-yl)methyl)cyclobutan-1-amine]	1.65
FC(F)(F)c1ccc(O[C@H]2C[C@H](NCc3cccc4cnccc34)C2)cn1 [Example 112, (1r,3r)-N-(isoquinolin-5-ylmethyl)-3-((6-(trifluoromethyl)pyridin-3-yl)oxy)cyclobutan-1-amine]	2.69
